Assay results as given in patent US20200199528A1, “CELL CULTURE MEDIA FOR DIFFERENTIATION OF STEM CELLS INTO HEPATOCYTES” (KATHOLIEKE UNIVERSITEIT LEUVEN, priority 2017, published 2020).

Assays:
[1] = tested on: HepG2 cells
Protocol: PSC, HC3X and HC6X cells were differentiated in a 384 well format. Cells were treated with 14 different concentrations of compounds in 6 repeats. As a negative control 41 wells were left untreated. After 24 h of exposure media was aspirated and fresh media was added to the cells supplemented with […] of DRAQ 7 (Abcam; ab109202) and Hoechst dye (1/1000, Sigma, 33258) for 25 min at 37°. Cells were fixed with 4% paraformaldehyde. Imaging was done using an Operetta High-Content Imaging System (Perkin Elmer) and image analysis was performed using Harmony software (Perkin Elmer). Relative cell number was calculated as the percentage of living cells (draq7 positive amount subtracted from the Hoechst positive amount) relative to the average of living cells in the control wells. As a positive control, 2 donors of PHHs were seeded at 10 000 cells per well. Drugs were administrated after 8 hours of attachment. HepG2 cells were seeded at 40 000 cells per well. For control conditions HepG2 cells were exposed after 2 days of culture.

[2] = tested on: HC6X cells
Protocol: We cultured HC6X cells (both in an H9 background and in an) BJ1-iPSc background in 384 well format in AAGLY-supplemented medium.
PSC, HC3X and HC6X cells were differentiated in a 384 well format. Cells were treated with 14 different concentrations of compounds in 6 repeats. As a negative control 41 wells were left untreated. After 24 h of exposure media was aspirated and fresh media was added to the cells supplemented with 0.3 mM of DRAQ 7 (Abcam; ab109202) and Hoechst dye (1/1000, Sigma, 33258) for 25 min at 37°. Cells were fixed with 4% paraformaldehyde. Imaging was done using an Operetta High-Content Imaging System (Perkin Elmer) and image analysis was performed using Harmony software (Perkin Elmer). Relative cell number was calculated as the percentage of living cells (draq7 positive amount subtracted from the Hoechst positive amount) relative to the average of living cells in the control wells. As a positive control, 2 donors of PHHs were seeded at 10 000 cells per well. Drugs were administrated after 8 hours of attachment. HepG2 cells were seeded at 40 000 cells per well. For control conditions HepG2 cells were exposed after 2 days of culture. For AAGLY conditions HepG2 cells were maintained in the supplemented medium for 30 days before exposure.

## CC(=O)Nc1ccc(O)cc1 [APAP, acetaminophen]
[1]
  Toxicity: not able to pick up toxicity
[2]
  Toxicity: no toxicity
